Values quoted from earlier work as cited in patent publication US8349557B2 (priority 2008, dated 2013).
Read-outs that look alike come from different tables or passages of the source.

Key:
[1] = tested on: V-ATPase
[2] = tested on: rat hepatoma cell line, H-4-II-E cells
[3] = tested on: cerebellar granule cells; settings: 24 hours
[4] = tested on: skeletal muscle; settings: in some patients
[5] = tested on: lysosomes

Row | Compound | V-ATPase activity ([1]; 0.3 nM bafilomycin) | V-ATPase activity ([1]; 10 nM bafilomycin) | V-ATPase activity ([1]; 100 nM bafilomycin (high-dose)) | effect on macroautophagy / autophagosome formation [2] | effect on macroautophagy / autophagosome formation ([2]; non-starved cells, 100 nM bafilomycin, one hour) | vacuoles in the cytoplasm ([3]; 0.3 nM bafilomycin) | vacuoles in the cytoplasm ([3]; 10 nM bafilomycin) | autophagic vacuolation in skeletal muscle [4] | degradation of long-lived proteins [5] | lysosomal pH [5]
1 | CO/C1=C\C(C)=C\[C@@H](C)[C@@H](O)[C@@H](C)C/C(C)=C/C=C/[C@H](OC)[C@@H]([C@@H](C)[C@@H](O)[C@H](C)[C@@]2(O)C[C@@H](O)[C@H](C)[C@@H](C(C)C)O2)OC1=O [bafilomycin] | 40-50 % of normal | below 10% | completely eliminates V-ATPase activity | explosive autophagosome formations occupying vast portions of the cytoplasm | no significant effect | not present | accumulation of large, swollen, single-membraned vacuoles in the cytoplasm with electron-dense deposits | – | – | –
2 | CCN(CC)CCCC(C)Nc1ccnc2cc(Cl)ccc12 (stereo not shown) [chloroquine] | – | – | – | – | – | – | – | florid autophagic vacuolation | impairs the degradation of long-lived proteins | raises their pH
